Experimental data reported in US20260209214A1, “LSD1 MODULATORS” (RECURSION PHARMACEUTICALS, INC., priority 2022, published 2026).

Biological target: Recombinant human LSD1 (Homo sapiens, UniProt O60341)
Test: LSD1 inhibition assay (HTRF LSD1 Histone H3K4 mono-demethylation assay, me1->me0)
Type: biochemical
Conditions: 20 nM recombinant human LSD1, 95 nM H3K4(me1) biotinylated peptide, 15 min preincubation, 60 min at 25° C., read-out: LSD1 inhibition IC50 (nM range)
Method in brief: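 HTRF demethylation (me1->me0) read-out: streptavidin-XL665 and anti-H3K4me0 cryptate added after reaction, ratio measured after 90 min dark. Reaction: 95 nM H3K4me1 biotin-peptide, 20 nM LSD1 (15-min compound pre-incubation), 60 min, 25 °C, buffer pH 8.5 plus FAD and DTT; 4-parameter logistic IC50.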

IC50 [nM]	SMILES
100 to 1000	CC(C)C1(O)CCN(c2ccc(CC3CNCCO3)cc2-c2ccc(C#N)c(F)c2)C1 (centres unmarked) [Example 66, 3-fluoro-2′-[3-hydroxy-3-(propan-2-yl)pyrrolidin-1-yl]-5′-[(morpholin-2-yl)methyl]-[1,1′-biphenyl]-4-carbonitrile]
10 to 25	CNC1CCN(c2cccc(-c3ccc(C#N)c(F)c3)c2-c2ccns2)CC1 [Example 81, 3-fluoro-3'-[4-(methylamino)piperidin-1-yl]-2'-(1,2-thiazol-5-yl)-[1,1'-biphenyl]-4-carbonitrile]
25 to 100	N#Cc1ccc(-c2cccc(CC3CNCCO3)c2-c2cnco2)cc1 (centres unmarked) [Example 27, 3′-[(morpholin-2-yl)methyl]-2′-(1,3-oxazol-5-yl)-[1,1′-biphenyl]-4-carbonitrile]
25 to 100	C[C@]1(N)CCN(Cc2cccc(-c3ccc(C#N)c(F)c3)c2C2CC2)C1 [Example 202, 3'-{[(3S)-3-amino-3-methylpyrrolidin-1-yl]methyl}-2'-cyclopropyl-3-fluoro-[1,1'-biphenyl]-4-carbonitrile]
10 to 25	N#Cc1ccc(-c2cccc(C[C@@H]3CNCCO3)c2-c2ocnc2F)cc1 [Example 3, 2′-(4-fluoro-1,3-oxazol-5-yl)-3′-{[(2R)-orpholin-2-yl]methyl}-[1,1′-biphenyl]-4-carbonitrile]
10 to 25	N#Cc1ccc(-c2cccc(CC3CNCCO3)c2-c2ocnc2F)cc1F (centres unmarked) [Example 29, 3-fluoro-2′-(4-fluoro-1,3-oxazol-5-yl)-3′-[(morpholin-2-yl)methyl]-[1,1′-biphenyl]-4-carbonitrile]
100 to 1000	N#Cc1ccc(-c2cccc(CC3CNCCO3)c2N2CCC2)cc1F (centres unmarked) [Example 21, 2′-(azetidin-1-yl)-3-fluoro-3′-[(morpholin-2-yl)methyl]-[1,1′-biphenyl]-4-carbonitrile]
< 10	N#Cc1ccc(-c2cc(CN3C[C@]4(N)CC[C@H]3C4)ccc2N2CCC3(CCOC3)CC2)cc1F [Example 234, 5'-{[(1S,4S)-4-amino-2-azabicyclo[2.2.1]heptan-2-yl]methyl}-3-fluoro-2'-{2-oxa-8-azaspiro[4.5]decan-8-yl}-[1,1'-biphenyl]-4-carbonitrile]
> 1000	N#Cc1ccc(-c2cccc(CN3CC4(CCN4)C3)c2Cl)cc1F [Example 292, 2'-chloro-3'-({1,6-diazaspiro[3.3]heptan-6-yl}methyl)-3-fluoro-[1,1'-biphenyl]-4-carbonitrile]
100 to 1000	CN(C[C@H]1CCCOC1)c1ccc(CC2CNCCO2)cc1-c1ccc(C#N)c(F)c1 (stereo partly drawn) [Example 120, 3-fluoro-2′-[methyl({[(3R)-oxan-3-yl]methyl})amino]-5′-[(morpholin-2-yl)methyl]-[1,1′-biphenyl]-4-carbonitrile]
25 to 100	N#Cc1ccc(-c2cc(CC3CNCCO3)ccc2N2CCC(C3CCCO3)CC2)cc1F (centres unmarked) [Example 73, 3-fluoro-5′-[(morpholin-2-yl)methyl]-2′-[4-(oxolan-2-yl)piperidin-1-yl]-[1,1′-biphenyl]-4-carbonitrile]
> 1000	COc1ccc(CC2CNCCO2)cc1-c1ccc(C#N)c(F)c1 (centres unmarked) [Example 142, 3-fluoro-2′-methoxy-5′-[(morpholin-2-yl)methyl]-[1,1′-biphenyl]-4-carbonitrile]
> 1000	N#Cc1ccc(-c2cccc(CN3CC4CC4(N)C3)c2Cl)cc1F (centres unmarked) [Example 287, 3'-({1-amino-3-azabicyclo[3.1.0]hexan-3-yl}methyl)-2'-chloro-3-fluoro-[1,1'-biphenyl]-4-carbonitrile]

SMILES	IC50 [nM]
N#Cc1ccc(-c2cccc(CN3[C@@H]4CC[C@H]3[C@@H](N)C4)c2N2CCCC2)cc1F (racemic) [Example 270, 3'-{[(1S,2S,4R)-2-amino-7-azabicyclo[2.2.1]heptan-7-yl]methyl}-3-fluoro-2'-(pyrrolidin-1-yl)-[1,1'-biphenyl]-4-carbonitrile]	100 to 1000
